Measurements taken from patent US7979946B2, “Polish and polishing mitts” (Kimberly-Clark Worldwide, Inc., priority 2006, dated 2011).
Entries after “also recorded” stand apart in the source; their conditions may differ.

Tested on: mold
Assay: Inhibition of mold growth in a polish applied to a mitt
Assay type: cell-based
Details: chemical added to base polish (Pedag Deluxe Cream Polish), samples compared with each other
Description: In each of the following Examples, a polish was applied to a mitt. The base polish was provided by Pedag USA, Inc. (Seattle) under the trade name Deluxe Cream Polish. […] The second sheet layer was constructed of a high-loft spunbond web of bicomponent polypropylene/polyethylene fibers with a side-by-side orientation laminated to a film of high density polyethylene on the inside surface. […] The first sheet layer and the second sheet layer were ultrasonically bonded leaving an opening for the insertion of two fingers (such as at seams 16 of FIGS. 1-3). Several different chemicals were tested to determine their ability to inhibit mold growth in a polish that has been applied to a mitt. For example, chloroacetamide, polyaminopropyl biguanide available under the name Cosmocil CQ from ICI Americas Inc., organosilicone quaternary ammonium compound available under the name AEM 5700 from Dow Chemical by Aegis Environmental Management (Midland, Mich.), a combination of combination of isothiazolones and N-/O-formals available under the name Parmetol DF35 from Schulke & Mayr, and methylparaben were each added to a base polish sample. The resulting polish samples were then applied to mitts. The ability of the polish to inhibit mold growth for each sample was then compared.

Structure (SMILES)	ability of the polish to inhibit mold growth
CCC(=O)O [propanoic acid]	inhibited growth of mold better than the other tested chemicals
COC(=O)c1ccc(O)cc1 [methylparaben]	inhibited growth of mold better than the other tested chemicals; also recorded: best results of all samples
